# From patent US20040072801A1, “Sterols bearing pendant allosteric effectors of hemoglobin, and uses thereof” (priority 2002, published 2004)
# Several values for one entry are separate records, joined by “and”; a condition that tells them apart may be missing. Equal values may be shown once. Entries after “also recorded” stand apart in the source; their conditions may differ. Read-outs that look alike come from different tables or passages of the source.
# Tests used:
# stripped hemoglobin = stripped hemoglobin (Homo sapiens, UniProt P68871); settings: pH 7.4, cited from earlier work
# human RBCs = settings: large-volume continuous-flow electroporation; cited from earlier work
# [1] = tested on: human RBCs in whole blood; assay: P50 of RBCs after in vitro incubation of human whole blood with effector (Hemox Analyzer); settings: for lysis of red blood cells (hemolysis): tested on whole blood; for P50 Increase % / P50 mm HG EFF:WB: EFF:WB 1:1.5; for lysis of the RBC: physiological or nearly physiological osmotic pressure, in vitro whole blood
# Free Hemoglobin = Free Hemoglobin (Homo sapiens, UniProt P68871); assay: P50 of free hemoglobin with effector (Table 1); format: biochemical; settings: ratio 1:1 (2.5 mM:2.5 mM), pH 7.1-7.2, 37° C.
# Description: The sample chamger contained:
# C57B1/6 mice [2] = assay: Tolerability and pharmacodynamics of SV184 and SV192 after iv injection; format: in vivo, mouse
# C57B1/6 mice [3] = assay: as above; format: in vivo, mouse; settings: for toxicity upon iv injection in mice: 30 mM effector solution; for shift of P50 in blood of surviving mice: less than 200 μL iv, blood taken 4 and 24 hours after injection
# Protocol: The tolerability and pharmacodynamics of the compounds SV184 and SV192 were tested in a small number of C57B1/6 mice. Mice receiving the whole volume of 200 μL of (30 mM) effector solution died immediately after injection or during injection (injection time 10-20 min). Eight mice receiving less than 200 μL of the compound solution survived. These mice were fast breathing and shaking, but recovered after 4 hours. […] Therefore, new derivatives were synthesized in our labs.
# [4] = tested on: mouse RBCs in whole blood; assay: P50 of RBCs after in vitro incubation of mouse whole blood with effector (Hemox Analyzer); format: cell-based; settings: for P50 Increase %: mouse WB
# mice RBC = format: in vivo; settings: ip 30, 45 and 60 mM; three hours after injection
# Protocol: Three hours after injection, samples of blood were taken for P50 measurements. […] We have observed the shift of the P50 values in the blood from the injected animals over 3 days.
# The P50 shift of RBC is similar to iv injections at concentrations of 30 and 45 mM.
# C57B1/6 mice [5] = tested on: C57B1/6 mice
# [6] = biological target: T1, C57B1/6 mice free hemoglobin (Mus musculus, UniProt P02088); assay: P50 of mouse free hemoglobin after incubation with KF effectors; format: biochemical; settings: effector 2.5 mM : mouse hemoglobin 2.5 mM, 1:1; pH 7.0
# T1 construct: P50 values of C57B1/6 mice free hemoglobin after incubation with; from tissue; host or cells: blood of C57Bl/6 mice (inferred; the preparation is not described)
# Protocol: The pH of the compound solutions was adjusted to approximately 7.1 and effector solution (2.5 mM) and mouse hemoglobin (2.5 mM) were mixed at 1:1 ratio. The osmolarity was adjusted to 218-310 mOsM. Effectors and whole blood (WB) at 1:1.5 were incubated at 37° C. for 60 minutes.
# They were tested for P50 right shift with mouse hemoglobin. The pH was adjusted to approximately 7.0 and effector solution (2.5 mM) and mouse hemoglobin (2.5 mM) were mixed at 1:1 ratio. P50 values were measured as before.
# [7] = iv 200 μL of 30 mM, 1 mouse injected
# [8] = EFF:WB 1:0.375, 224 mOsM, 30 mM
# [9] = EFF:WB 1:0.375, 220 mOsM, 30 mM
# Sequence of stripped hemoglobin (P69905 2-142 partner limits assumed): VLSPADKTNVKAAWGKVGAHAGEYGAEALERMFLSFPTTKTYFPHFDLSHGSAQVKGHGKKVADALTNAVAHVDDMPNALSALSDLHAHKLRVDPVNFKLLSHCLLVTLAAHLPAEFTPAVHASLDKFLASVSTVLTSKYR
# Sequence of stripped hemoglobin (P68871 2-147 limits assumed): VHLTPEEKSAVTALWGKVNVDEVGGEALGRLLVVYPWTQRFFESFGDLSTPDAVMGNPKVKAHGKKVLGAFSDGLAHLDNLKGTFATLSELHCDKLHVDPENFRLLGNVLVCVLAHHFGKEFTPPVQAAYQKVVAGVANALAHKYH
# T1 sequence (P01942 2-142 partner limits assumed): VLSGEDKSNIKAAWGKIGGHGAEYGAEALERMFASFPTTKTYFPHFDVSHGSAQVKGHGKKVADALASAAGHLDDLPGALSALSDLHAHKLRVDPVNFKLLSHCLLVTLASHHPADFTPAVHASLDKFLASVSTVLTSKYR
# T1 sequence (P02088 2-147 limits assumed): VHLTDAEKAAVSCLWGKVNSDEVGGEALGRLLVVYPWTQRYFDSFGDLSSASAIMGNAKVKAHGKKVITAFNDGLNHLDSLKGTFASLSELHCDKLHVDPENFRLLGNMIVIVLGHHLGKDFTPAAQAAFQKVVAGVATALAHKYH
# Sequence of Free Hemoglobin (P69905 2-142 partner limits assumed): as the sequence (P69905 2-142 partner limits assumed) above
# Sequence of Free Hemoglobin (P68871 2-147 limits assumed): as the sequence (P68871 2-147 limits assumed) above
compound,measurement,setting,value
"O=P(O)(O)O[C@H]1[C@H](OP(=O)(O)O)[C@@H](OP(=O)(O)O)[C@H](OP(=O)(O)O)[C@@H](OP(=O)(O)O)[C@H]1OP(=O)(O)O [IHP, inositol hexaphosphate]",O2 half-saturation pressure P(O2)(½) of stripped hemoglobin,"stripped hemoglobin; 25 C, without effector 4.3",48.4 mm Hg
same,O2 half-saturation pressure P(O2)(½) of stripped hemoglobin,"stripped hemoglobin; 37 C, without effector 9.3",96.4 mm Hg
same,P50 of human RBCs with encapsulated IHP,human RBCs,approximately 50 torr
"CC(C)CCCC(C)C1CCC2C3CC=C4CC(OC(=O)OP(=O)(O)OC5C(OP(=O)(O)O)C(OP(=O)(O)O)C(OP(=O)(O)O)C(OP(=O)(O)O)C5OP(=O)(O)O)CCC4(C)C3CCC12C.CCCCN(CCCC)CCCC.CCCCN(CCCC)CCCC.CCCCN(CCCC)CCCC.CCCCN(CCCC)CCCC.CCCCN(CCCC)CCCC.CCCCN(CCCC)CCCC (centres unmarked) [Effector 2a, Inositol hexaphosphate-cholesteroloxycarbonyl, hexa tributyl-ammonium salt]",lysis of red blood cells (hemolysis),[1],triggered the lysis of the red blood cells
"CC(C)CCCC(C)C1CCC2C3CC=C4CC(OC(=O)OP(=O)(O)OC5C(OP(=O)(O)O)C(OP(=O)(O)O)C(OP(=O)(O)O)C(OP(=O)(O)O)C5OP(=O)(O)O)CCC4(C)C3CCC12C.CN(C)C1CCCCC1.CN(C)C1CCCCC1.CN(C)C1CCCCC1.CN(C)C1CCCCC1.CN(C)C1CCCCC1.CN(C)C1CCCCC1.CN(C)C1CCCCC1.CN(C)C1CCCCC1 (centres unmarked) [SV192, Inositol hexaphosphate-cholesteroloxycarbonyl, octa N,N-dimethyl-cyclohexylammonium salt]",P50 mm Hg EFF:WB (fHb),Free Hemoglobin,32.5 mm Hg
same,Shift of P50 %,C57B1/6 mice [2]; iv 135 μL of 30 nM,<3%
same,Number of mice died,"C57B1/6 mice [2]; iv 135 μL of 30 mM, 2 mice injected",0
same,Number of mice died,"C57B1/6 mice [2]; iv 165 μL of 30 mM, 2 mice injected",2
same,lysis of RBC on incubation,"[1]; human WB, EFF:WB 1:0.375, 224 mOsM, 30 mM",Lyses; also recorded: lysis
same,P50 Increase %,"[1]; human WB, 224 mOsM, 30 mM",26%
same,P50 mm HG EFF:WB,"[1]; human WB, 224 mOsM, 30 mM",29.5 mm Hg
same,P50 Increase %,"[1]; human WB, 310 mOsM, 30 mM",25%
same,P50 mm HG EFF:WB,"[1]; human WB, 310 mOsM, 30 mM",30 mm Hg
same,lysis of the RBC,[1],no lysis
same,lysis of red blood cells (hemolysis),[1]; listed as 2b,did not trigger hemolysis
same,lysis of red blood cells (hemolysis),"[1]; listed as IHP-cholesterol derivative with N,N-dimethyl-cyclohexylammonium countercations",without any detectable cell lysis
same,Number of mice died,C57B1/6 mice [3]; [7],1
same,toxicity upon iv injection in mice,C57B1/6 mice [3],high level of toxicity
same,shift of P50 in blood of surviving mice,C57B1/6 mice [3],did not show a significant shift of P50
"CC(C)CCCC(C)C1CCC2C3CC=C4CC(OC(=O)OP(=O)([O-])OC5C(OP(=O)([O-])[O-])C(OP(=O)([O-])[O-])C(OP(=O)([O-])[O-])C(OP(=O)([O-])[O-])C5OP(=O)([O-])[O-])CCC4(C)C3CCC12C.[Na+].[Na+].[Na+].[Na+].[Na+].[Na+].[Na+].[Na+].[Na+].[Na+].[Na+] (centres unmarked) [SV184, Inositol hexaphosphate-cholesteroloxycarbonyl, undecanyl sod ium salt]",P50 mm HG EFF:WB,[4]; [8],44.3 mm Hg
same,P50 mm HG EFF:WB,"[4]; EFF:WB 1:1.5, 310 mOsM, 30 mM",41.8 mm Hg
same,P50 Increase %,[4]; [8],15%
same,P50 Increase %,"[4]; EFF:WB 1:1.5, 310 mOsM, 30 mM",9%
same,Shift of P50 %,C57B1/6 mice [2]; iv 150 μL of 30 nM,<5%
same,Number of mice died,"C57B1/6 mice [2]; iv 150 μL of 30 mM, 4 mice injected",0
same,Number of mice died,C57B1/6 mice [2]; [7],1
same,P50 Increase %,"[1]; human WB, 232 mOsM, 30 mM",16%
same,P50 mm HG EFF:WB,"[1]; human WB, 232 mOsM, 30 mM",30.4 mm Hg
same,P50 mm HG EFF:WB,"[1]; human WB, 310 mOsM, 30 mM",30 mm Hg
same,"P50 (FIG. 2, Curve B)","C57B1/6 mice [3]; IV, WB mouse, 1 h, saline control P50=33.3",41.0
same,% increase of P50 (FIG. 2),"C57B1/6 mice [3]; IV, WB mouse, 1 h, versus saline control",23.12%
same,toxicity upon iv injection in mice,C57B1/6 mice [3],high level of toxicity
same,shift of P50 in blood of surviving mice,C57B1/6 mice [3],did not show a significant shift of P50
CC(C)CCCC(C)C1CCC2C3CC=C4CC(OC(=O)OP(=O)(O)OC5C(OP(=O)(O)O)C(OP(=O)(O)O)C(OP(=O)(O)O)C(OP(=O)(O)O)C5OP(=O)(O)O)CCC4(C)C3CCC12C.CN(C)C1CCCCC1.CN(C)C1CCCCC1.CN(C)C1CCCCC1.CN(C)C1CCCCC1.CN(C)C1CCCCC1.CN(C)C1CCCCC1.CN(C)C1CCCCC1.CN(C)C1CCCCC1 (centres unmarked) [SV192bis],P50 Increase %,"[1]; human WB, 220 mOsM, 30 mM",6%
same,P50 mm HG EFF:WB,"[1]; human WB, 220 mOsM, 30 mM",26.6 mm Hg
same,P50 Increase %,"[1]; human WB, 272 mOsM, 30 mM",6%
same,P50 mm HG EFF:WB,"[1]; human WB, 272 mOsM, 30 mM",24 mm Hg
same,P50 Increase %,"[1]; human WB, 306 mOsM, 30 mM",13%
same,P50 mm HG EFF:WB,"[1]; human WB, 306 mOsM, 30 mM",28.3 mm Hg
same,lysis of the RBC,[1],no lysis
CC(C)CCCC(C)C1CCC2C3CC=C4CC(OC(=O)OP(=O)(O)OC5C(OP(=O)(O)O)C(OP(=O)(O)O)C(OP(=O)(O)O)C(OP(=O)(O)O)C5OP(=O)(O)O)CCC4(C)C3CCC12C.CN(C)C1CCCCC1.CN(C)C1CCCCC1.CN(C)C1CCCCC1.CN(C)C1CCCCC1.CN(C)C1CCCCC1.CN(C)C1CCCCC1.CN(C)C1CCCCC1.CN(C)C1CCCCC1 (centres unmarked) [SV192ter],P50 mm HG EFF:WB,[4]; [9],46.4 mm Hg
same,P50 mm HG EFF:WB,"[4]; EFF:WB 1:1.5, 264 mOsM, 15 mM",42.2 mm Hg
same,P50 mm HG EFF:WB,"[4]; EFF:WB 1:1.5, 276 mOsM, 30 mM",43.5 mm Hg
same,P50 mm HG EFF:WB,"[4]; EFF:WB 1:1.5, 283 mOsM, 5 mM",43.1 mm Hg
same,P50 mm HG EFF:WB,"[4]; EFF:WB 1:1.5, 314 mOsM, 60 mM",43.1 mm Hg
same,P50 mm HG EFF:WB,"[4]; EFF:WB 1:1.5, 320 mOsM, 30 mM",41.4 mm Hg and 43.4 mm Hg and 41.9 mm Hg
same,P50 mm HG EFF:WB,"[4]; EFF:WB 1:1.5, 320 mOsM, 50 mM",42.6 mm Hg
same,P50 Increase %,[4]; [9],8%
same,P50 Increase %,"[4]; EFF:WB 1:1.5, 264 mOsM, 15 mM",2%
same,P50 Increase %,"[4]; EFF:WB 1:1.5, 276 mOsM, 30 mM",5%
same,P50 Increase %,"[4]; EFF:WB 1:1.5, 283 mOsM, 5 mM",7%
same,P50 Increase %,"[4]; EFF:WB 1:1.5, 314 mOsM, 60 mM",4%
same,P50 Increase %,"[4]; EFF:WB 1:1.5, 320 mOsM, 30 mM",8% and 13% and 9%
same,P50 Increase %,"[4]; EFF:WB 1:1.5, 320 mOsM, 50 mM",5%
same,P50 Increase %,"[1]; human WB, 202 mOsM, 30 mM",5%
same,P50 mm HG EFF:WB,"[1]; human WB, 202 mOsM, 30 mM",26.3 mm Hg
same,P50 Increase %,"[1]; human WB, 258 mOsM, 30 mM",2%
same,P50 mm HG EFF:WB,"[1]; human WB, 258 mOsM, 30 mM",25.6 mm Hg
same,P50 Increase %,"[1]; human WB, 274 mOsM, 30 mM",3%
same,P50 mm HG EFF:WB,"[1]; human WB, 274 mOsM, 30 mM",26.8 mm Hg
same,P50 Increase %,"[1]; human WB, 303 mOsM, 30 mM",4%
same,P50 mm HG EFF:WB,"[1]; human WB, 303 mOsM, 30 mM",26.2 mm Hg
same,lysis of the RBC,[1],no lysis
"O=C(O)C(COP(=O)(O)O)OP(=O)(O)O (centres unmarked) [2,3-Diphosphoglycerate]",O2 half-saturation pressure P(O2)(½) of stripped hemoglobin,"stripped hemoglobin; 25 C, without effector 4.3",12.0 mm Hg
same,O2 half-saturation pressure P(O2)(½) of stripped hemoglobin,"stripped hemoglobin; 37 C, without effector 9.3",23.7 mm Hg
"Inositol hexaphosphate-cholesteroloxycarbonyl, hepta N,N-dimethyl-cyclohexylammonium salt [KF16]",right shift of P50 after ip injection,mice RBC,strong right shift of P50
same,P50 Increase %,"C57B1/6 mice [5]; iv 200 μL of 60 mM, 2 h after injection",> 10%
same,right shift in P50 value at lower concentrations,"C57B1/6 mice [5]; iv, concentrations lower than 60 mM",6-9%
same,P50 Increase %,[6],90%
same,P50 mm Hg EFF/fHb,[6],52.17 mm Hg
same,P50 mm Hg EFF:WB,"[4]; 1:1.5, 283 mOsM, pH 7.1, 30 mM, 60 min 37° C.",36.14 mm Hg
